Laboratory results: ChEMBL document CHEMBL4613260, “NF-κB Inhibitory and Antibacterial Helvolic and Fumagillin Derivatives from Aspergillus terreus” (J Nat Prod, 2020)
Active and inactive are the calls of the source. No cut-off for these calls is given here.

Experiments:
[1] = Inhibition of TNFalpha-induced NFkappaB activation in human HEK293 cells after 6 hrs by luciferase assay; type: cell-based; conditions: HEK293, 6 h
A2780 = assay: Antiproliferative activity against human A2780 cells at 40 uM after 72 hrs by Cyquant assay; type: functional, cell-based
HEK293 = assay: Cytotoxicity against HEK293 cells at 50 uM by SRB assay; type: cell-based; conditions: human, hek293, 50 µM
Staphylococcus aureus [2] = assay: Antibacterial activity against Staphylococcus aureus ATCC 43300 after 24 hrs by resazurin dye based broth microdilution method; type: functional; conditions: ATCC 43300, 24 h
Escherichia coli [3] = assay: Antibacterial activity against Escherichia coli ATCC 9637 after 24 hrs by resazurin dye based broth microdilution method; type: functional; conditions: W ATCC 9637, 24 h
Staphylococcus aureus [4] = assay: Antibacterial activity against Staphylococcus aureus ATCC 43300 at 50 ug/ml after 24 hrs by resazurin dye based broth microdilution method; type: functional, organism-based
Escherichia coli [5] = assay: Antibacterial activity against Escherichia coli ATCC 9637 at 50 ug/ml after 24 hrs by resazurin dye based broth microdilution method; type: functional, organism-based; conditions: W ATCC 9637

Compound | IC50 [1] | Activity (A2780) | Activity (HEK293) | MIC (Staphylococcus aureus [2]) | MIC (Escherichia coli [3]) | Activity (Staphylococcus aureus [4]) | Activity (Escherichia coli [5])
Cc1ccc(S(=O)(=O)/C=C/C#N)cc1 | 11 µM | – | – | – | – | – | –
CC(=O)O[C@H]1C[C@@]2(C)[C@@H](CC[C@H]3[C@@]4(C)C=CC(=O)[C@@H](C)[C@@H]4[C@H](OC(C)=O)C(=O)[C@@]32C)/C1=C(\CCC=C(C)C)C(=O)O [HELVOLIC ACID] | 2.7 µM | inactive | Non-Toxic | 12.5 µg/mL | 3.12 µg/mL | – | –
CC(=O)O[C@H]1C[C@@]2(C)[C@@H](CC[C@H]3[C@@]4(C)CCC(=O)[C@@H](C)[C@@H]4C[C@@H](O)[C@@]32C)/C1=C(\CCC=C(C)C)C(=O)O | – | inactive | Non-Toxic | 6.25 µg/mL | 25 µg/mL | – | –
CC(=O)O[C@H]1C[C@@]2(C)[C@@H](CC[C@H]3[C@@]4(C)CCC(=O)[C@@H](C)[C@@H]4[C@H](OC(C)=O)C(=O)[C@@]32C)/C1=C(\CCC=C(C)C)C(=O)O | 6.5 µM | inactive | Non-Toxic | 50 µg/mL | 25 µg/mL | – | –
Cc1ccc(S(=O)(=O)N[C@@H](Cc2ccccc2)C(=O)CCl)cc1 [TPCK] | 5.3 µM | – | – | – | – | – | –
CC(=O)O[C@H]1C[C@@]2(C)[C@@H](CC[C@H]3[C@@]4(C)CCC(=O)[C@@H](C)[C@@H]4CC[C@@]32C)/C1=C(\CCC=C(C)C)C(=O)O | – | inactive | Non-Toxic | 6.25 µg/mL | 25 µg/mL | – | –
CO[C@@H]1[C@H](OC(=O)/C=C/C=C/C=C/C(=O)O)CC[C@]2(O)CO[C@](C)([C@H](O)CC=C(C)C)[C@@H]12 | – | inactive | Non-Toxic | – | – | inactive | inactive
CO[C@@H]1[C@H](OC(=O)/C=C/C=C/C=C/C=C/C(=O)O)CC[C@]2(CO2)[C@H]1[C@@]1(C)O[C@@H]1CC=C(C)C [FUMAGILLIN] | – | inactive | Non-Toxic | – | – | inactive | inactive
CC(=O)O[C@H]1C[C@@]2(C)[C@@H](CC[C@H]3[C@@]4(C)CCC(=O)[C@@H](C)[C@@H]4[C@H](O)C(=O)[C@@]32C)/C1=C(\CCC=C(C)C)C(=O)O | – | inactive | Non-Toxic | 12.5 µg/mL | 25 µg/mL | – | –
O=C(N[C@H](CO)[C@H](O)c1ccc([N+](=O)[O-])cc1)C(Cl)Cl [CHLORAMPHENICOL] | – | – | – | 19.4 µM | 9.66 µM | – | –
